# Read-outs that look alike come from different tables or passages of the source.
# Tested on: NLRP3
# Test: IL-1β secretion assay in PMA-differentiated, LPS/nigericin-stimulated THP-1 cells (ELISA)
# Type: cell-based
# Conditions: 25 ng/mL LPS then nigericin, IL-1β in supernatant
# Protocol: Compounds as provided herein were tested in the following assay. Cell culture medium employed contained RPMI 1640 medium (89%), FBS (10%), Pen/Strep (1%), and 2-mercaptoethanol (0.05 mM). Freezing medium was made up of 90% FBS and 10% DMSO. THP-1 cells were removed from the liquid nitrogen and placed into a 37° C. water bath to thaw, until signs of ice dissipated. The cells were then added to 9 mL of warm cell culture medium and centrifuged for 5 minutes at 1000 rpm. The supernatant was discarded, and the cells were resuspended in new cell culture medium. THP-1 cells were then split and cultured in the cell culture medium, being passaged every 2-3 days with the cell density will be maintained between 5×10^5 and 1.5×10^6 viable cells/mL.
# PMA was dissolved in DMSO to make a stock solution at 5 mg/ml and stored in 10 μl aliquots at −20° C. for single use. PMA is added to normal growth medium. LPS was diluted with 1 mL of water solution to provide a 1 mg/mL stock solution and stored in 15 μL aliquots at −20° C. for single use. Nigericin is diluted in ice cold 100% ethanol to 5 mg/ml (6.7 mM) and stored in 75 μL aliquots at −20° C. for single use. Serum-free media contains RPMI 1640 medium (99%), Pen/Strep (1%), and 2-mercaptoethanol (0.05 mM). The two control conditions used to qualify and normalize test compound dose-response curves were as follows: High Control=25 ng/mL LPS, […], 0.5% DMSO, Low Control=25 ng/mL, LPS, 0.5% DMSO.
# THP-1 cells were diluted to provide a suspension at a concentration of 1.0×10^6 cells/mL with the total volume of suspension required to enable the desired number of assay plates. The growth media was supplemented with PMA (5 ng/mL final concentration) and the cells were incubated at 37° C. under a humidified atmosphere of 5% CO2 for 40 h.
# All media was carefully aspirated from each culture flask. The cells were washed carefully with 1×DPBS. The cells were then briefly digested with trypsin LE for 5 minutes at 23° C. and immediately resuspended in cell growth media. After resuspension, the cells were centrifuged at 1000 rpm for 3 minutes and the supernatant was discarded. The cells were resuspended in DPBS and once again centrifuged at 1000 rpm for 5 minutes. The supernatant was discarded and the cell pellet was resuspended in serum-free media supplemented with LPS (25 ng/mL final concentration) to enable the distribution of 30K THP-1 cells within 45 μL of media into each well of 384-well PDL-coated plates. The 384-well plates were then incubated at 37° C. under a humidified atmosphere of 5% CO2 for 2 h. Following this period, test compounds were dispensed by Tecan across the desired concentration range with all wells normalized to a final 0.5% DMSO concentration. The plates were then then incubated at 37° C. under a humidified atmosphere of 5% CO2 for 1 h. Following this period, 5 μL of the 5 mg/mL nigericin stock solution was added to each of the appropriate wells and plates were centrifuged at 1000 rpm for 30 seconds. The plates were the immediately reintroduced to the incubator at 37° C. under a humidified atmosphere of 5% CO2 for 2 h. After this time, 35 μL/well of supernatant was collected and transferred into v-bottom plate and centrifuged at 1000 rpm for 1 minute. These supernatant aliquots were analyzed using an IL-Iβ detection kit as described below. If needed, the test samples could be snap frozen and stored at −80° C. until analyzed.
# To prepare each ELISA plate, capture antibody (mAb Mt175) was diluted with PBS to a final concentration of […] and then 20 μL of this solution was added to each well of the ELISA plate. Each plate was allowed to incubate overnight at 4° C. The next day, the capture antibody solution was removed and discarded. Each ELISA plate was washed 4 times with PBST followed by the addition of 25 µL/well of blocking buffer (Licor-927-40010) supplemented with 0.1% Tween 20. Each ELISA plate was then allowed to incubate for 1 hour at 23° C. […]
# [1] = Homo sapiens, THP-1, THP-1 cells, read-out: Activity
# [2] = Homo sapiens, THP-1, THP-1 cells, read-out: Activity (IC50 class)
# [3] = THP-1 cells, read-out: Activity
# [4] = THP-1 cells, read-out: Activity (IC50 class)
IC50 [1],IC50 [2],IC50 [3],IC50 [4],Compound
0.322 µM,< 1 µM,,,"O=C(CN1CC2(CC2)c2cc(Br)ccc2C1=O)Nc1nc2[nH]ncc2cc1F [Example 59, 2-(6-bromo-1-oxospiro[3H-isoquinoline-4,1′-cyclopropane]-2-yl)-N-[5-fluoro-1H-pyrazolo[3,4-b]pyridin-6-yl]acetamide]"
,,0.058 µM,< 1 µM,"C[C@]1(O)C[C@@H](NC(=O)CN2CC3(CC3(F)F)c3cc(Br)ccc3C2=O)C1 (single isomer, unassigned) [Example 21, N-(3-cis-hydroxy-3-methylcyclobutyl)-2-[6-bromo-1′,1′-difluoro-1-oxospiro[3H-isoquinoline-4,2′-cyclopropane]-2-yl]acetamide]"
,,,> 10 µM,"O=C(CN1CC2(CC2(F)F)c2c(ccc(C(F)(F)F)c2F)C1=O)Nc1ncc(Cl)cn1 (single isomer, unassigned) [Example 14, N-(5-chloropyrimidin-2-yl)-2-[1′,1′,5-trifluoro-6-(trifluoromethyl)-1-oxospiro[3H-isoquinoline-4,2′-cyclopropane]-2-yl]acetamide]"
,1 to 10 µM,5.73 µM,,"O=C(CN1CC2(CC2(F)F)c2cc(C3CC3)ccc2C1=O)Nc1ncc(F)cn1 (single isomer, unassigned) [Example 28, N-(5-fluoropyrimidin-2-yl)-2-[6-cyclopropyl-1′,1′-difluoro-1-oxospiro[3H-isoquinoline-4,2′-cyclopropane]-2-yl]acetamide]"
,1 to 10 µM,1.96 µM,,"O=C(CN1C[C@]2(C[C@H]2F)c2cc(C(F)(F)F)ccc2C1=O)Nc1nc2ccccn2n1 (single isomer, unassigned) [Example 49, 2-[(2′s,4r)-2′-fluoro-1-oxo-6-(trifluoromethyl)spiro[3H-isoquinoline-4,1′-cyclopropane]-2-yl]-N-([1,2,4]triazolo[1,5-a]pyridin-2-yl)acetamide]"
,,22.4 µM,> 10 µM,"Cc1cnc(NC(=O)CN2CC3(CC3(F)F)c3c(ccc(C4CC4)c3F)C2=O)nc1 (single isomer, unassigned) [Example 36, N-(5-methylpyrimidin-2-yl)-2-[6-cyclopropyl-1′,1′,5-trifluoro-1-oxospiro[3H-isoquinoline-4,2′-cyclopropane]-2-yl]acetamide]"
0.181 µM,< 1 µM,,,"O=C(CN1CC2(CC2)c2cc(C(F)(F)F)ccc2C1=O)Nc1ncc2cn[nH]c2n1 [Example 51, 2-[1-oxo-6-(trifluoromethyl)spiro[3H-isoquinoline-4,1′-cyclopropane]-2-yl]-N-(1H-pyrazolo[3,4-d]pyrimidin-6-yl)acetamide]"
,1 to 10 µM,6.09 µM,,"Cc1cnc(NC(=O)CN2CC3(CC3(F)F)c3cc(C4(F)CC4)ccc3C2=O)nc1 (single isomer, unassigned) [Example 24, N-(5-methylpyrimidin-2-yl)-2-[1′,1′-difluoro-6-(1-fluorocyclopropyl)-1-oxospiro[3H-isoquinoline-4,2′-cyclopropane]-2-yl]acetamide]"
,,0.061 µM,< 1 µM,"Cc1cnc(NC(=O)CN2CC3(CC3(F)F)c3cc(C4(F)CC4)ccc3C2=O)nc1 (single isomer, unassigned) [Example 25, N-(5-methylpyrimidin-2-yl)-2-[1′,1′-difluoro-6-(1-fluorocyclopropyl)-1-oxospiro[3H-isoquinoline-4,2′-cyclopropane]-2-yl]acetamide]"
0.216 µM,< 1 µM,,,"COC(=O)C12CC(NC(=O)CN3CC4(CC4)c4cc(Br)ccc4C3=O)(C1)C2 [Example 60, methyl 3-[[2-(6-bromo-1-oxospiro[3H-isoquinoline-4,1′-cyclopropane]-2-yl)acetyl]amino]bicyclo[1.1.1]pentane-1-carboxylate]"
0.072 µM,< 1 µM,,,"C[C@]1(O)C[C@@H](NC(=O)CN2C[C@]3(C[C@H]3F)c3c(ccc(C4CC4)c3F)C2=O)C1 [Example 6, N-(3-cis-hydroxy-3-methylcyclobutyl)-2-[(2′s,4r)-2′,5-difluoro-6-cyclopropyl-1-oxospiro[3H-isoquinoline-4,1′-cyclopropane]-2-yl]acetamide]"
0.024 µM,< 1 µM,,,"O=C(CN1C[C@]2(C[C@H]2F)c2cc(C3(F)CC3)ccc2C1=O)Nc1ncc(C(F)(F)F)cn1 [Example 1, 2-[(2′R,4S)-2′-fluoro-6-(1-fluorocyclopropyl)-1-oxospiro[3H-isoquinoline-4,1′-cyclopropane]-2-yl]-N-(5-(trifluoromethyl)pyrimidin-2-yl)acetamide]"
,,8.34 µM,,"C[C@]1(O)C[C@@H](NC(=O)CN2CC3(CC3(F)F)c3cc(C4(F)CC4)ccc3C2=O)C1 (single isomer, unassigned) [Example 22, N-(3-cis-hydroxy-3-methylcyclobutyl)-2-[1′,1′-difluoro-6-(1-fluorocyclopropyl)-1-oxospiro[3H-isoquinoline-4,2′-cyclopropane]-2-yl]acetamide]"
0.051 µM,< 1 µM,,,"O=C(CN1C[C@]2(C[C@H]2F)c2c(ccc(Cl)c2F)C1=O)Nc1ncc(Cl)cn1 (single isomer, unassigned) [Example 43, 2-[(2′s,4r)-6-chloro-2′,5-difluoro-1-oxospiro[3H-isoquinoline-4,1′-cyclopropane]-2-yl]-N-(5-chloropyrimidin-2-yl)acetamide]"
,1 to 10 µM,3.48 µM,,"Cc1cnc(NC(=O)CN2CC3(CC3(F)F)c3cc(Br)ccc3C2=O)nc1 (single isomer, unassigned) [Example 18, N-(5-methylpyrimidin-2-yl)-2-[6-bromo-1′,1′-difluoro-1-oxospiro[3H-isoquinoline-4,2′-cyclopropane]-2-yl]acetamide]"
0.018 µM,< 1 µM,,,"Cc1cnc(NC(=O)CN2C[C@]3(C[C@H]3F)c3cc(C4(F)CC4)ccc3C2=O)nc1 [Example 2, 2-[(2′R,4S)-2′-fluoro-6-(1-fluorocyclopropyl)-1-oxospiro[3H-isoquinoline-4,1′-cyclopropane]-2-yl]-N-(5-methylpyrimidin-2-yl)acetamide]"
1.54 µM,1 to 10 µM,,,"Cc1cnc(NC(=O)CN2CC(C(F)(F)F)c3cc(C)ccc3C2=O)nc1 (stereo not drawn) [Example 9, 2-(6-methyl-1-oxo-4-(trifluoromethyl)-3,4-dihydroisoquinolin-2(1H)-yl)-N-(5-methylpyrimidin-2-yl)acetamide]"
,< 1 µM,0.032 µM,,"C[C@]1(O)C[C@@H](NC(=O)CN2CC3(CC3(F)F)c3cc(C4(F)CC4)ccc3C2=O)C1 (single isomer, unassigned) [Example 23, N-(3-cis-hydroxy-3-methylcyclobutyl)-2-[1′,1′-difluoro-6-(1-fluorocyclopropyl)-1-oxospiro[3H-isoquinoline-4,2′-cyclopropane]-2-yl]acetamide]"
,< 1 µM,0.231 µM,,"O=C(CN1C[C@]2(C[C@H]2F)c2cc(C(F)(F)F)ccc2C1=O)Nc1ncc2cn[nH]c2n1 (single isomer, unassigned) [Example 47, 2-[(2′s,4r)-2′-fluoro-1-oxo-6-(trifluoromethyl)spiro[3H-isoquinoline-4,1′-cyclopropane]-2-yl]-N-(1H-pyrazolo[3,4-d]pyrimidin-6-yl)acetamide]"
